How the values were obtained:
Assay type in all cases: in vivo
large crabgrass [1] = assay: Test Example 4: herbicidal effect in foliage treatment; conditions: dose 3.2 g/a, three weeks after application
Text: (§1) Test on the Herbicidal Effect in Foliage Treatment
(§2) Sterilized diluvial soil was put in plastic boxes with a length of 21 cm, a width of 13 cm and a depth of 7 cm, and seeds of barnyardgrass, large crabgrass, giant foxtail, wild oat, blackgrass, velvetleaf, common ragweed, redroot pigweed, common lambsquater, posumbu knotweed, common chickweed, corn, soybean, rice, wheat and sugar beet were sown in spots and covered with an about 1.5 cm-thick soil layer. The boxes were placed in a greenhouse at 25 to 30° C. to grow the plants. After 14 days, emulsifiable concentrates containing compounds of the present invention formulated in accordance with Formulation Example 2 were uniformly applied to the foliage at predetermined doses through a small sprayer after diluted with water. Three weeks after the application, the herbicidal effects against various plants were determined on the same evaluation scale as in Test Example 1.
(§3) A: barnyardgrass, B: bulrush, C: ducksalad, D: large crabgrass, E: giant foxtail, F: wild oat, G: water foxtail, H: Italian ryegrass, I: velvetleaf, J: common ragweed, K: redroot pigweed, L: common lambsquater, M: posumbu knotweed, N: common chickweed, O: beadstraw, a: transplanted rice, b: corn, c: soybean, d: direct-seeded rice, e: wheat, f: sugar beet.
(§4) The doses (g/a) represents the amounts in g per 1 are (a) applied after adjustment of concentration adjustment.

giant foxtail [2] = assay: as above; conditions: dose 3.2 g/a, three weeks after application
Text: as §1, §2, §3, §4

posumbu knotweed = assay: as above; conditions: dose 3.2 g/a, three weeks after application
Text: as §1, §2, §3, §4

Italian ryegrass [3] = assay: as above; conditions: dose 3.2 g/a, three weeks after application
Text: as §1, §2, §3, §4

beadstraw = assay: as above; conditions: dose 3.2 g/a, three weeks after application
Text: as §1, §2, §3, §4

common ragweed [4] = assay: as above; conditions: dose 3.2 g/a, three weeks after application
Text: as §1, §2, §3, §4

redroot pigweed [5] = assay: as above; conditions: dose 3.2 g/a, three weeks after application
Text: as §1, §2, §3, §4

barnyardgrass [6] = assay: as above; conditions: dose 3.2 g/a, three weeks after application
Text: as §1, §2, §3, §4

water foxtail [7] = assay: as above; conditions: dose 3.2 g/a, three weeks after application
Text: as §1, §2, §3, §4

common lambsquater [8] = assay: as above; conditions: dose 3.2 g/a, three weeks after application
Text: as §1, §2, §3, §4

velvetleaf [9] = assay: as above; conditions: dose 3.2 g/a, three weeks after application
Text: as §1, §2, §3, §4

common chickweed [10] = assay: as above; conditions: dose 3.2 g/a, three weeks after application
Text: as §1, §2, §3, §4

ducksalad [11] = assay: Test Example 2: herbicidal effects during the vegetation period under submerged conditions; conditions: treatment during the vegetation period under submerged conditions; dose 2.52 g/a
Procedure: (§5) Test on the Herbicidal Effects on Weeds During the Vegetation Period Under Submerged Conditions
(§6) Alluvial soil was put in 1/30000-are styrol cups and admixed with water so that it was submerged at a depth of 4 cm. In each cup, seeds of barnyardgrass, bulrush and ducksalad were sown together, and the cups were placed in a greenhouse at 25 to 30° C. to grow the plants. When the barnyardgrass, bulrush and ducksalad reached the 1- or 2-leaf stage, emulsifiable concentrates containing compounds of the present invention formulated in accordance with Formulation Example 2 were applied to the water surfaces at predetermined doses after diluted with water. Three weeks after the application, the herbicidal effects against various plants were determined on the same evaluation scale as in Test Example 1.
as §3, §4

bulrush [12] = assay: as above; conditions: treatment during the vegetation period under submerged conditions; dose 2.52 g/a
Procedure: as §5, §6, §3, §4

barnyardgrass [13] = assay: as above; conditions: treatment during the vegetation period under submerged conditions; dose 2.52 g/a
Procedure: as §5, §6, §3, §4

transplanted rice = assay: Test Example 1: preemergence treatment under submerged conditions, effect on crop; conditions: dose 2.52 g/a
Text: (§7) Test on the Herbicidal Effects in Preemergence Treatment on Weeds Under Submerged Conditions
(§8) Alluvial soil was put in 1/30000-are styrol cups and admixed with water so that it was submerged at a depth of 4 cm. In each cup, seeds of barnyardgrass, bulrush and ducksalad were sown together, and rice seedlings at the 2.5-leaf stage were transplanted. On the same day as the seeding, emulsifiable concentrates containing compounds of the present invention formulated in accordance with Formulation Example 2 were applied to the water surfaces at predetermined doses after diluted with water. The cups were placed in a greenhouse at 25 to 30° C. to grow the plants. Three weeks after the application, the herbicidal effects against various plants were determined on the following evaluation scale.
(§9) 5 mortality of 90% or above (nearly complete death)
(§10) 4 mortality of at least 70% and less than 90%
(§11) 3 mortality of at least 40% and less than 70%
(§12) 2 mortality of at least 20% and less than 40%
(§13) 1 mortality of at least 5% and less than 20%
(§14) 0 mortality of less than 5% (almost ineffective)
as §3, §4

large crabgrass [14] = assay: Test Example 3: herbicidal effects in soil treatment; conditions: dose 3.2 g/a
Text: (§15) Test on the Herbicidal Effects in Soil Treatment
as §2, with “chickweed” for “chickweed,”, “Emulsifiable” for “The boxes were placed in a greenhouse at 25 to 30° C. to grow the plants. After 14 days, emulsifiable”, “soil surfaces” for “foliage”, “dilute” for “diluted”
as §3, §4

giant foxtail [15] = assay: as above; conditions: dose 3.2 g/a
Text: as §15
as §2, with “chickweed” for “chickweed,”, “Emulsifiable” for “The boxes were placed in a greenhouse at 25 to 30° C. to grow the plants. After 14 days, emulsifiable”, “soil surfaces” for “foliage”, “dilute” for “diluted”
as §3, §4

Italian ryegrass [16] = assay: as above; conditions: dose 3.2 g/a
Text: as §15
as §2, with “chickweed” for “chickweed,”, “Emulsifiable” for “The boxes were placed in a greenhouse at 25 to 30° C. to grow the plants. After 14 days, emulsifiable”, “soil surfaces” for “foliage”, “dilute” for “diluted”
as §3, §4

common ragweed [17] = assay: as above; conditions: dose 3.2 g/a
Text: as §15
as §2, with “chickweed” for “chickweed,”, “Emulsifiable” for “The boxes were placed in a greenhouse at 25 to 30° C. to grow the plants. After 14 days, emulsifiable”, “soil surfaces” for “foliage”, “dilute” for “diluted”
as §3, §4

redroot pigweed [18] = assay: as above; conditions: dose 3.2 g/a
Text: as §15
as §2, with “chickweed” for “chickweed,”, “Emulsifiable” for “The boxes were placed in a greenhouse at 25 to 30° C. to grow the plants. After 14 days, emulsifiable”, “soil surfaces” for “foliage”, “dilute” for “diluted”
as §3, §4

barnyardgrass [19] = assay: as above; conditions: dose 3.2 g/a
Text: as §15
as §2, with “chickweed” for “chickweed,”, “Emulsifiable” for “The boxes were placed in a greenhouse at 25 to 30° C. to grow the plants. After 14 days, emulsifiable”, “soil surfaces” for “foliage”, “dilute” for “diluted”
as §3, §4

water foxtail [20] = assay: as above; conditions: dose 3.2 g/a
Text: as §15
as §2, with “chickweed” for “chickweed,”, “Emulsifiable” for “The boxes were placed in a greenhouse at 25 to 30° C. to grow the plants. After 14 days, emulsifiable”, “soil surfaces” for “foliage”, “dilute” for “diluted”
as §3, §4

common lambsquater [21] = assay: as above; conditions: dose 3.2 g/a
Text: as §15
as §2, with “chickweed” for “chickweed,”, “Emulsifiable” for “The boxes were placed in a greenhouse at 25 to 30° C. to grow the plants. After 14 days, emulsifiable”, “soil surfaces” for “foliage”, “dilute” for “diluted”
as §3, §4

velvetleaf [22] = assay: as above; conditions: dose 3.2 g/a
Text: as §15
as §2, with “chickweed” for “chickweed,”, “Emulsifiable” for “The boxes were placed in a greenhouse at 25 to 30° C. to grow the plants. After 14 days, emulsifiable”, “soil surfaces” for “foliage”, “dilute” for “diluted”
as §3, §4

common chickweed [23] = assay: as above; conditions: dose 3.2 g/a
Text: as §15
as §2, with “chickweed” for “chickweed,”, “Emulsifiable” for “The boxes were placed in a greenhouse at 25 to 30° C. to grow the plants. After 14 days, emulsifiable”, “soil surfaces” for “foliage”, “dilute” for “diluted”
as §3, §4

ducksalad [24] = assay: Test Example 1: herbicidal effects in preemergence treatment under submerged conditions; conditions: dose 2.52 g/a
Text: as §7, §8, §9, §10, §11, §12, §13, §14, §3, §4

bulrush [25] = assay: as above; conditions: dose 2.52 g/a
Text: as §7, §8, §9, §10, §11, §12, §13, §14, §3, §4

barnyardgrass [26] = assay: as above; conditions: dose 2.52 g/a
Text: as §7, §8, §9, §10, §11, §12, §13, §14, §3, §4

## CCOC(=O)N(c1ccccc1CN1COC2(CCCC2)CC1=O)S(=O)(=O)C(F)(F)F [II-66]
Large crabgrass [1]
  D: large crabgrass, herbicidal effect: 3 (mortality of at least 40% and less than 70%)
Giant foxtail [2]
  E: giant foxtail, herbicidal effect: 4 (mortality of at least 70% and less than 90%)
Posumbu knotweed
  M: posumbu knotweed, herbicidal effect: 4 (mortality of at least 70% and less than 90%)
Italian ryegrass [3]
  H: Italian ryegrass, herbicidal effect: 3 (mortality of at least 40% and less than 70%)
beadstraw
  O: beadstraw, herbicidal effect: 0 (mortality of less than 5% (almost ineffective))
Common ragweed [4]
  J: common ragweed, herbicidal effect: 3 (mortality of at least 40% and less than 70%)
Redroot pigweed [5]
  K: redroot pigweed, herbicidal effect: 0 (mortality of less than 5% (almost ineffective))
Barnyardgrass [6]
  A: barnyardgrass, herbicidal effect: 5 (mortality of 90% or above (nearly complete death))
Water foxtail [7]
  G: water foxtail, herbicidal effect: 5 (mortality of 90% or above (nearly complete death))
Common lambsquater [8]
  L: common lambsquater, herbicidal effect: 3 (mortality of at least 40% and less than 70%)
Velvetleaf [9]
  I: velvetleaf, herbicidal effect: 3 (mortality of at least 40% and less than 70%)
Common chickweed [10]
  N: common chickweed, herbicidal effect: 4 (mortality of at least 70% and less than 90%)
Ducksalad [11]
  C: ducksalad, herbicidal effect (evaluation scale 0-5): 5 (mortality of 90% or above (nearly complete death))
Bulrush [12]
  B: bulrush, herbicidal effect (evaluation scale 0-5): 5 (mortality of 90% or above (nearly complete death))
Barnyardgrass [13]
  A: barnyardgrass, herbicidal effect (evaluation scale 0-5): 5 (mortality of 90% or above (nearly complete death))
Transplanted rice
  a: transplanted rice, effect on crop (evaluation scale 0-5): 0 (mortality of less than 5% (almost ineffective))
Large crabgrass [14]
  D: large crabgrass, herbicidal effect (evaluation scale 0-5): 5 (mortality of 90% or above (nearly complete death))
Giant foxtail [15]
  E: giant foxtail, herbicidal effect (evaluation scale 0-5): 5 (mortality of 90% or above (nearly complete death))
Italian ryegrass [16]
  H: Italian ryegrass, herbicidal effect (evaluation scale 0-5): 5 (mortality of 90% or above (nearly complete death))
Common ragweed [17]
  J: common ragweed, herbicidal effect (evaluation scale 0-5): 3 (mortality of at least 40% and less than 70%)
Redroot pigweed [18]
  K: redroot pigweed, herbicidal effect (evaluation scale 0-5): 2 (mortality of at least 20% and less than 40%)
Barnyardgrass [19]
  A: barnyardgrass, herbicidal effect (evaluation scale 0-5): 5 (mortality of 90% or above (nearly complete death))
Water foxtail [20]
  G: water foxtail, herbicidal effect (evaluation scale 0-5): 5 (mortality of 90% or above (nearly complete death))
Common lambsquater [21]
  L: common lambsquater, herbicidal effect (evaluation scale 0-5): 0 (mortality of less than 5% (almost ineffective))
Velvetleaf [22]
  I: velvetleaf, herbicidal effect (evaluation scale 0-5): 4 (mortality of at least 70% and less than 90%)
Common chickweed [23]
  N: common chickweed, herbicidal effect (evaluation scale 0-5): 5 (mortality of 90% or above (nearly complete death))
Ducksalad [24]
  C: ducksalad, herbicidal effect (evaluation scale 0-5): 5 (mortality of 90% or above (nearly complete death))
Bulrush [25]
  B: bulrush, herbicidal effect (evaluation scale 0-5): 5 (mortality of 90% or above (nearly complete death))
Barnyardgrass [26]
  A: barnyardgrass, herbicidal effect (evaluation scale 0-5): 5 (mortality of 90% or above (nearly complete death))
